Source: patent US20230322715A1, “BROAD SPECTRUM ANTI-CANCER COMPOUNDS” (The Regents of the University of California, priority 2019, published 2023)
“And” between values parts separate entries of the source, which are not always exact repeats. Equal entries are not always repeated. Where two headings read alike, the source gives them in different places.

Assays:
[1] = target: YTHDF2 (Homo sapiens (Human), UniProt Q9Y5A9); assay: In vitro FRET assay for binding affinities of YTH inhibitors, YTHDF2
Source text: (§1) FIG. 8-2 depicts possible design and synthesis of compound libraries. In Vitro FRET assay development could yield a high throughput FRET assay to determine binding affinities for potential YHT inhibitors against YTHDF1, YTHDF2, YTHDF3, or other similar proteins.

[2] = target: YTHDF1 (Homo sapiens (Human), UniProt Q9BYJ9); assay: In vitro FRET assay for binding affinities of YTH inhibitors, YTHDF1
Source text: as §1

[3] = target: FTO (Homo sapiens (Human), UniProt Q9C0B1); assay: Fluorescence enzymatic inhibition assay (m6A7-Broccoli RNA / DFHBI-1T) against FTO; format: biochemical; conditions: for selectivity between FTO and ALKBH5: comparison of enzymatic IC50 values; for IC50: read-out: Enzymatic IC50 FTO; for precipitation in assay buffer: dose response could not be determined
Description: In order to determine their efficacy as FTO inhibitors, the compounds were screened by a fluorescence enzymatic inhibition assay developed previously by the Jaffrey lab.^44 Briefly, a nonfluorescent methylated RNA substrate termed “m6A7-Broccoli” is incubated with FTO in the presence of 2-oxoglutarate (300 μM), (NH4)2Fe(SO4)2·6H2O (300 μM), and L-ascorbate (2 mM) for 2 hours at room temperature in reaction buffer (50 mM NaHEPES, pH 6).
(§2) Inhibitors were added in concentrations ranging from 0.008-40 μM; all inhibitors were dissolved in DMSO and added to a final concentration of 0.2% DMSO. […] After incubation at room temperature for 2 hours, the plates were left at 4° C. overnight (16 hours) to allow DFHBI-1T to bind to A7-Broccoli RNA. […] Sigmoidal dose-response curves were fitted in GraphPad Prism 6. All assays were performed in triplicate, with additional repetitions added as necessary.

[4] = target: ALKBH5 (Homo sapiens (Human), UniProt Q6P6C2); assay: Fluorescence enzymatic inhibition assay (m6A7-Broccoli RNA / DFHBI-1T) against ALKBH5; format: biochemical; conditions: for IC50: read-out: Enzymatic IC50 ALKBH5
Description: as §2

[5] = test system: cancer cells by cancer type; conditions: read-out: EC50 of Chemo SOC, cited from earlier work
[6] = elogD / log D determination; conditions: Table 700 compounds
[7] = Ki values for YTH library against YTHDF2, read-out: Ki
[8] = m6A7-Broccoli fluorescence assay, 0.250 μM FTO, inhibitor up to 40 μM, triplicate
[9] = m6A7-Broccoli fluorescence assay, 0.250 μM ALKBH5

FTO, sequence (Q9C0B1 whole entry): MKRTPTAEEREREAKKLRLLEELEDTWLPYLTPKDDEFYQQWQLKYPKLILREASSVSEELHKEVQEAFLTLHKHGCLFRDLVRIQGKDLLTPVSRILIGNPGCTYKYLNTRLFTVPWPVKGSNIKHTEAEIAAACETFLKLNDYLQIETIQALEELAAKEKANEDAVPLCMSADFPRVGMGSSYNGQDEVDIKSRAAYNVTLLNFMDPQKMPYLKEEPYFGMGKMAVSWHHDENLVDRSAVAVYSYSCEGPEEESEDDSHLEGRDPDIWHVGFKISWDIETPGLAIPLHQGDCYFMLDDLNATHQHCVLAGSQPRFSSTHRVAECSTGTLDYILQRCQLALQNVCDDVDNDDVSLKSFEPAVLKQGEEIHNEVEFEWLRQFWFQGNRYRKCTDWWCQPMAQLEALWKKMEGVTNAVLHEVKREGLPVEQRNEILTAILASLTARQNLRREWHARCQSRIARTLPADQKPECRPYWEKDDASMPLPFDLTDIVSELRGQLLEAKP
ALKBH5, sequence (Q6P6C2 whole entry): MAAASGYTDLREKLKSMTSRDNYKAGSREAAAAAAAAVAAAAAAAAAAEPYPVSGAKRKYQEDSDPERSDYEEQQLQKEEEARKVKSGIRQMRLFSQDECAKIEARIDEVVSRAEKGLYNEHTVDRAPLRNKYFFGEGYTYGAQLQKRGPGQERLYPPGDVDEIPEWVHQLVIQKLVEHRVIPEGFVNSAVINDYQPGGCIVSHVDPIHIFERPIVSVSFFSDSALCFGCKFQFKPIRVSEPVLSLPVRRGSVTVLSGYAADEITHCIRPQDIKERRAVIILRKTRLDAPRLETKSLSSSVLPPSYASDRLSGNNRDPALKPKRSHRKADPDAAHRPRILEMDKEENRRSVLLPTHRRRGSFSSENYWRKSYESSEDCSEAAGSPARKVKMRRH
YTHDF1, sequence (Q9BYJ9 whole entry): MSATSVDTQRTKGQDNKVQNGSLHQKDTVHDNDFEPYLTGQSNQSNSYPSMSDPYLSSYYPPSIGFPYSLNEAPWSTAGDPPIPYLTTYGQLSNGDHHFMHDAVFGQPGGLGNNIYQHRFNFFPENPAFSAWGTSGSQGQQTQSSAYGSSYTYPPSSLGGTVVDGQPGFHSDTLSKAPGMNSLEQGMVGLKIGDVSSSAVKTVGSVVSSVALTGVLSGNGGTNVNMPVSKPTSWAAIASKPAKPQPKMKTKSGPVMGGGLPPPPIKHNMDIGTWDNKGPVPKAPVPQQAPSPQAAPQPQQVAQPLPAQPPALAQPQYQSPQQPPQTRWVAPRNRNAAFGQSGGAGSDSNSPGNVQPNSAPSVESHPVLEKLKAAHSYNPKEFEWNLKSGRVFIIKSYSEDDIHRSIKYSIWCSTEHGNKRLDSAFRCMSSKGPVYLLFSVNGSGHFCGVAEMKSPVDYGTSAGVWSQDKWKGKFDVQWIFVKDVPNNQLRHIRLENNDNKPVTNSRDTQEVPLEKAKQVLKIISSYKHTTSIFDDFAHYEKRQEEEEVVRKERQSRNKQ
YTHDF2, sequence (Q9Y5A9 whole entry): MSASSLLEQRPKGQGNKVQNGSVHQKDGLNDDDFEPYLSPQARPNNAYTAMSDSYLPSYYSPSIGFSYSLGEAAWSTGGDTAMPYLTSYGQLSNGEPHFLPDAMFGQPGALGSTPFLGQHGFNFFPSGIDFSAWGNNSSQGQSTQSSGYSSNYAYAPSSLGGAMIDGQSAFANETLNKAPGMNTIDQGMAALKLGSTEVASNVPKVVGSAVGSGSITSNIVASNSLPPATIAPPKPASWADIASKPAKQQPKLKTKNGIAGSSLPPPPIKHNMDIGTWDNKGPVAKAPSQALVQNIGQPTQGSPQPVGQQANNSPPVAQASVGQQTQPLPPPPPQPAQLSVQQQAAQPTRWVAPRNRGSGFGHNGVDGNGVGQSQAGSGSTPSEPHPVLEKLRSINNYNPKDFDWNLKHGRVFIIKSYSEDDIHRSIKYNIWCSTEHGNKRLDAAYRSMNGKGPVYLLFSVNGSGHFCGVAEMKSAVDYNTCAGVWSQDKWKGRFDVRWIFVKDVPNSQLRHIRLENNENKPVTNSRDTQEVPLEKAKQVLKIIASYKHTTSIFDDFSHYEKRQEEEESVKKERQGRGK

| SMILES | Ki [1, 7] | Ki ([1]; read-out: Ki (pM) YTHDF2) | Ki ([1]; read-out: Ki YTHDF2) | Ki ([2]; read-out: Ki (pM) YTHDF1) | Ki ([2]; read-out: Ki YTHDF1) | melting point | other results |
| --- | --- | --- | --- | --- | --- | --- | --- |
| COc1ccc(CNc2ccc(CN(C)C)cn2)cc1 [TR-YTH-16] | 179 ± 36 pM | 179 ± 36 pM | 179 ± 36 pM | 214 ± 50 pM | 214 ± 50 pM |  |  |
| COCCNc1ncc(-c2ccc(CO)c(OC)c2)cn1 [FTO-20, (2-methoxy-4-(2-((2-methoxyethyl)amino)pyrimidin-5-yl)phenyl)methanol] |  |  |  |  |  | 230 °C | selectivity between FTO and ALKBH5 [3]: five-fold or higher; IC50 [3, 8]: 17200 ± 2900 nM; IC50 [4, 9]: 90200 ± 7800 nM |
| COc1ccc(CNc2ccc(CNC3CC3)cn2)cc1 [TR-YTH-01] | 102 ± 15 pM | 102 ± 15 pM | 102 ± 15 pM | 164 ± 21 pM | 164 ± 21 pM |  |  |
| O=c1[nH]cc(F)c(=O)[nH]1 [5FU, fluorouracil] |  |  |  |  |  |  | EC50 ([5]; Colon): 2000 to 10000 nM; EC50 ([5]; Gastric): 28800 nM |
| COc1ccc2cc(-c3cnc(OC)nc3)ccc2c1 [FTO-8, 2-methoxy-5-(6-methoxynaphthalen-2-yl)pyrimidine] |  |  |  |  |  | 230 °C | selectivity between FTO and ALKBH5 [3]: equivalent inhibitors towards both demethylases; IC50 [4, 9]: 16400 nM |
| Fc1ccnc(Nc2ccc(CNC3CC3)cn2)c1 [TR-YTH-15] | 145 ± 33 pM | 145 ± 33 pM | 145 ± 33 pM | 236 ± 51 pM | 236 ± 51 pM |  |  |
| O=C(c1cc(Cc2n[nH]c(=O)c3ccccc23)ccc1F)N1CCN(C(=O)C2CC2)CC1 [Olaparib] |  |  |  |  |  |  | EC50 ([5]; Breast): 30000 nM |
| Fc1cccc(F)c1CNc1ccc(CNC2CC2)cn1 [TR-YTH-09] | 172 ± 49 pM | 172 ± 49 pM | 172 ± 49 pM | 281 ± 9 pM | 281 ± 9 pM |  |  |
| Nc1ncc(-c2cccc(Nc3ccccc3)c2)cn1 [FTO-9, 5-(3-(phenylamino)phenyl)pyrimidin-2-amine] |  |  |  |  |  | 230 °C | selectivity between FTO and ALKBH5 [3]: distinct preference towards ALKBH5 over FTO; IC50 [3, 8]: > 40000 nM and 43800 nM; IC50 [4, 9]: 5200 nM |
| Nc1ccn([C@@H]2O[C@H](CO)[C@@H](O)C2(F)F)c(=O)n1 [gemcitabine] |  |  |  |  |  |  | EC50 ([5]; Pancreatic): < 1000 nM |
| O=C1[O][Pt]2([NH][C@@H]3CCCC[C@H]3[NH]2)[O]C1=O [oxalplatin, oxaliplatin] |  |  |  |  |  |  | EC50 ([5]; Colon): 2000 to 20000 nM; EC50 ([5]; Esophagoel): 37000 nM; EC50 ([5]; Pancreatic): 3500 to 10000 nM |
| CN(Cc1ccc(C(F)(F)F)cc1)c1ccc(CNC2CC2)cn1 [TR-YTH-10] | 106 ± 26 pM | 106 ± 26 pM | 106 ± 26 pM | 615 ± 107 pM | 615 ± 107 pM |  |  |
| Fc1ccc(CNc2ccc(CNC3CC3)cn2)cc1F [TR-YTH-06] | 395 ± 51 pM | 395 ± 51 pM | 395 ± 51 pM | 285 pM | 285 ± 154 pM |  |  |
| N.N.[Cl][Pt][Cl] [cisplatin] |  |  |  |  |  |  | EC50 ([5]; Breast): 5000 nM; EC50 ([5]; Esophagoel): 8000 nM; EC50 ([5]; Gastric): 13500 to 25000 nM; EC50 ([5]; Ovarian): 2000 to 40000 nM; EC50 ([5]; Pancreatic): 20000 to 26000 nM |
| COCCNc1ncc(-c2ccc3ccc(O)cc3c2)cn1 [FTO-17, 7-(2-((2-methoxyethyl)amino)pyrimidin-5-yl)naphthalen-2-ol] |  |  |  |  |  | 230 °C | IC50 [3, 8]: 51900 nM |
| COCCNc1ncc(-c2ccc3cc(OC)ccc3c2)cn1 [FTO-15, N-(2-methoxyethyl)-5-(6-methoxynaphthalen-2-yl)pyrimidin-2-amine] |  |  |  |  |  | 230 °C | precipitation in assay buffer [3]: significant precipitation |
| Nc1ccn([C@@H]2O[C@H](CO)[C@@H](O)[C@@H]2O)c(=O)n1 [Cytarabine] |  |  |  |  |  |  | EC50 ([5]; Leukemia): 250 to 3500 nM |
| Nc1ncc(-c2cccc(OCc3ccccc3)c2)cn1 [FTO-13, 5-(3-(benzyloxy)phenyl)pyrimidin-2-amine] |  |  |  |  |  | 230 °C | selectivity between FTO and ALKBH5 [3]: distinct preference towards ALKBH5 over FTO; IC50 [3, 8]: 36700 nM; IC50 [4, 9]: 14900 nM |
| COc1ncc(-c2ccc(CO)c(OC)c2)cn1 [FTO-6, (2-methoxy-4-(2-methoxypyrimidin-5-yl)phenyl)methanol] |  |  |  |  |  | 230 °C | selectivity between FTO and ALKBH5 [3]: five-fold or higher; IC50 [3, 8]: 13800 ± 2400 nM |
| COCCNc1ncc(-c2ccc3nc(C)ccc3c2)cn1 [FTO-19, N-(2-methoxyethyl)-5-(2-methylquinolin-6-yl)pyrimidin-2-amine] |  |  |  |  |  | 230 °C | selectivity between FTO and ALKBH5 [3]: equivalent inhibitors towards both demethylases; IC50 [3, 8]: 25200 nM; IC50 [4, 9]: 53500 nM |

| SMILES | Ki [1, 7] | Ki ([1]; read-out: Ki (pM) YTHDF2) | Ki ([1]; read-out: Ki YTHDF2) | Ki ([2]; read-out: Ki (pM) YTHDF1) | Ki ([2]; read-out: Ki YTHDF1) | melting point | other results |
| --- | --- | --- | --- | --- | --- | --- | --- |
| Cc1ccc2cc(-c3cncnc3)ccc2n1 [FTO-7, 2-methyl-6-(pyrimidin-5-yl)quinoline] |  |  |  |  |  | 230 °C | IC50 [3, 8]: 29100 nM; inhibition of ALKBH5 at the highest concentration measured [4]: no measurable inhibition; IC50 [4, 9]: > 40000 nM |
| FC(F)(F)c1ccc(CNc2ccc(CNC3CC3)cn2)cc1 [TR-YTH-07] | 77 ± 18 pM | 77 ± 18 pM | 77 ± 18 pM | 162 ± 30 pM | 162 ± 30 pM |  |  |
| Cc1ccc(Nc2ccc(CNC3CC3)cn2)cc1C [TR-YTH-12] | 850 ± 115 pM | 850 ± 115 pM | 850 ± 115 pM | 1420 ± 375 pM | 1420 ± 375 pM |  |  |
| Cc1ccc2cc(-c3cnc(N)nc3)ccc2n1 [FTO-14, 5-(2-methylquinolin-6-yl)pyrimidin-2-amine] |  |  |  |  |  | 230 °C | IC50 [3, 8]: 59600 nM |
| CS(=O)(=O)CCNCc1ccc(-c2ccc3ncnc(Nc4ccc(OCc5cccc(F)c5)c(Cl)c4)c3c2)o1 [lapatinib] |  |  |  |  |  |  | EC50 ([5]; Breast): 137000 nM |
| COCCNc1ncc(-c2ccc3cc(O)ccc3c2)cn1 [FTO-16, 6-(2-((2-methoxyethyl)amino)pyrimidin-5-yl)naphthalen-2-ol] |  |  |  |  |  | 230 °C | IC50 [3, 8]: 46500 nM |
| CN(C)Cc1ccc(NCc2ccc(F)cc2)nc1 [TR-YTH-19] | 107 ± 19 pM | 107 ± 19 pM | 107 ± 19 pM | 391 ± 66 pM | 391 ± 66 pM |  |  |
| Fc1ccc(CNc2ccc(CNC3CC3)cn2)cc1 [TR-YTH-08] |  |  |  | 880 ± 194 pM | 880 ± 194 pM |  |  |
| Oc1ccc2cc(-c3cncnc3)ccc2c1 [FTO-1, 6-(pyrimidin-5-yl)naphthalen-2-ol] |  |  |  |  |  | 230 °C | IC50 [3, 8]: 41700 nM; inhibition of ALKBH5 at the highest concentration measured [4]: no measurable inhibition; IC50 [4, 9]: > 40000 nM |
| COc1ncc(-c2cccc(OCc3ccccc3)c2)cn1 [FTO-3, 5-(3-(benzyloxy)phenyl)-2-methoxypyrimidine] |  |  |  |  |  | 230 °C | precipitation in assay buffer [3]: significant precipitation |
| COc1ccc2cc(-c3cncnc3)ccc2c1 [FTO-5, 5-(6-methoxynaphthalen-2-yl)pyrimidine] |  |  |  |  |  | 230 °C | selectivity between FTO and ALKBH5 [3]: five-fold or higher; IC50 [3, 8]: 13400 ± 2300 nM; inhibition of ALKBH5 at the highest concentration measured [4]: no measurable inhibition; IC50 [4, 9]: > 40000 nM |
| c1cncc(CNc2ccc(CNC3CC3)cn2)c1 [TR-YTH-05] | 70 ± 12 pM | 70 ± 12 pM | 70 ± 12 pM | 90 ± 10 pM | 90 ± 10 pM |  |  |
| COc1ccc(CNc2ccc(CNC3CC3)cn2)c(OC)c1 [TR-YTH-02] | 182 ± 69 pM | 182 ± 69 pM | 182 ± 69 pM | 229 ± 57 pM | 229 ± 57 pM |  |  |
| CC(Nc1ccc(CN(C)C)cn1)c1ccccc1 (centres unmarked) [TR-YTH-18] | 95 ± 13 pM | 95 ± 13 pM | 95 ± 13 pM | 209 ± 27 pM | 209 ± 27 pM |  |  |
| CC(Nc1ccc(CNC2CC2)cn1)c1ccccc1 (centres unmarked) [TR-YTH-04] | 100 ± 34 pM | 100 ± 34 pM | 100 ± 34 pM | 129 ± 6 pM | 129 ± 6 pM |  |  |
| CC1(C)[C@H](C(=O)O)N2C(=O)C[C@H]2S1(=O)=O [ALK-09] |  |  |  |  |  |  | IC50 ([3]; Table 700 compounds): > 40000 nM; elogD [6]: 0.41; IC50 ([4]; Table 700 compounds): 3800 nM and 5700 nM |
| COCCNc1ncc(-c2ccc(OCc3ccccc3)cc2)cn1 [FTO-18, 5-(4-(benzyloxy)phenyl)-N-(2-methoxyethyl)pyrimidin-2-amine] |  |  |  |  |  | 230 °C | inhibition of ALKBH5 at the highest concentration measured [4]: no measurable inhibition; IC50 [4, 9]: > 40000 nM |
| COC(=O)C1COC(c2ccc(-c3ccccc3)s2)N1 (centres unmarked) [ALK-25] |  |  |  |  |  |  | IC50 ([3]; Table 700 compounds): > 40000 nM; elogD [6]: 1.17; IC50 ([4]; Table 700 compounds): 900 ± 200 nM |
| COc1ccc(CNc2ccc(CNC3CC3)cn2)cc1OC [TR-YTH-03] | 85 ± 26 pM | 85 ± 26 pM | 85 ± 26 pM | 123 ± 6 pM | 123 ± 6 pM |  |  |
